# Source: patent publication US8614179B2, “Antibacterial combination therapy for the treatment of gram positive bacterial infections” (E-Therapeutics PLC, priority 2008, dated 2013)
# Where two headings read alike, the source gives them in different places.
# Tests used:
# [1] = tested on: MRSA AND VRE; test: MIC by agar dilution, MIC50/MIC90/range over MRSA and VRE strain panel; type: cell-based, Staphylococcus aureus; Enterococci
# Description: In example experiments miconazole nitrate, econazole nitrate and clotrimazole were dissolved in DMSO. Colistin, D-cycloserine, fosfomycin and polymixin B were dissolved in water.
# Other solvents that may be used include caster oil, pyridine, and 0.9% saline. For IV administration agents may be solubilised in polyethoxylated caster oil, or cyclodextrins such as sulfobutylether7-βcyclodextrin or hydroxypropyl-β-cyclodextrin and lactic acid. Minimum inhibitory concentrations (MICs) of a range of clinical and control bacterial organisms were measured according to BSAC (British Society for Antimicrobial Chemotherapy) guidelines (Andrews 2001), for single agents. […] MICs were measured by agar dilution. Kill curves were performed in accordance with the methods of Garrison and Nuemiller, 2007. Briefly kill profiles were generated by logarithmically plotting mean CFU/mL data over time. Total logarithmic reductions in bacterial counts were determined by subtracting 24 h CFU/mL values from starting inocula.
# (§1) Stock solutions were prepared at concentrations of 1000 mg/L and 100 mg/L. To determine the MIC of miconazole, the appropriate amount of each stock solution were added to separate Petri dishes give a range of final concentrations (after the addition of 20 mL molten agar): from 0.12 to 32 mg/L. To determine the MICs of miconazole with the specific agent active on a bacterial cell surface, these concentrations of miconazole were used in addition to a fixed sub-inhibitory amount of the agent active on a bacterial cell surface. […] Volumes (20 mL) of cooled molten IST agar (oxoid) was added to each Petri dish and mixed by swirling. After drying, the plates were stored at 4° C. and protected from light. Plates were used on the day of preparation.
# The test organisms were grown overnight in 5 mL IST broth. Using a dilution in 0.9% saline of 1:100, the appropriate agar plates were inoculated using a multipoint inoculator. […]
# The MIC is the minimum amount of an antibiotic at which there is no visible growth of bacteria. Tiny single colonies or faint hazes were not counted as growth. […] The concentration of miconazole, with or without the cell membrane or cell wall active agent, capable of inhibiting the growth of 50% and 90% of the strains tested is reported as the MIC50 and MIC90 respectively. The range of MICs for each group of bacterial strains is also reported.
# [2] = tested on: Enterococcus faecium (VRE); test: microbe, parasite or virus in culture; type: cell-based; details: read-out: MIC
# Description: (§2) In example experiments miconazole nitrate, econazole nitrate and clotrimazole were dissolved in DMSO. Colistin, D-cycloserine, fosfomycin and polymixin B were dissolved in water. Nisin was suspended at 10 mg/mL in 0.02 M HCl, and the supernatant fraction following centrifugation at 10,000 g for 10 mins was used in the following experiments.
# (§3) Other solvents that may be used include caster oil, pyridine, and 0.9% saline. For IV administration agents may be solubilised in polyethoxylated caster oil, or cyclodextrins such as sulfobutylether7-βcyclodextrin or hydroxypropyl-β-cyclodextrin and lactic acid. Minimum inhibitory concentrations (MICs) of a range of clinical and control bacterial organisms were measured according to BSAC (British Society for Antimicrobial Chemotherapy) guidelines (Andrews 2001), for single agents. The method of determining MICs of imidazole with colistin, D-cycloserine, fosfomycin, polymixin B, or nisin is described briefly as follows. MICs were measured by agar dilution. Kill curves were performed in accordance with the methods of Garrison and Nuemiller, 2007. Briefly kill profiles were generated by logarithmically plotting mean CFU/mL data over time. Total logarithmic reductions in bacterial counts were determined by subtracting 24 h CFU/mL values from starting inocula.
# as §1
# (§4) The test organisms were grown overnight in 5 mL IST broth. Using a dilution in 0.9% saline of 1:100, the appropriate agar plates were inoculated using a multipoint inoculator.
# (§5) Agar plates and microtitre plates were incubated at 37° C. in air for 18-20 hours.
# (§6) The MIC is the minimum amount of an antibiotic at which there is no visible growth of bacteria. Tiny single colonies or faint hazes were not counted as growth. Synergy was reported if the inhibitory effect of the drugs in combination were greater than the sum of the inhibitory effects of each drug singly. The concentration of miconazole, with or without the cell membrane or cell wall active agent, capable of inhibiting the growth of 50% and 90% of the strains tested is reported as the MIC50 and MIC90 respectively. The range of MICs for each group of bacterial strains is also reported.
# [3] = tested on: VISA; test: microbe, parasite or virus in culture; type: cell-based; details: Staphylococcus aureus, read-out: MIC
# Description: as §2, §3, §1, §4, §5, §6
# [4] = tested on: E1 E. gall ATCC 12359 VanC; test: organism not typed; type: cell-based; details: Table 4; strain E1 E. gall ATCC 12359 VanC; agents singly or miconazole MIC with 2.5 mg/L nisin
# Description: as §2
# as §3, with “Briefly kill profiles were generated by logarithmically plotting mean CFU/mL data over time.” left out, “inocula. […]” for “inocula.”
# The MIC is the minimum amount of an antibiotic at which there is no visible growth of bacteria. Tiny single colonies or faint hazes were not counted as growth. […]
# [5] = tested on: Clostridium difficile; test: MIC against clinical isolates of Clostridium difficile; type: cell-based; details: Table 5, miconazole alone or with 0.5 mg/L nisin
# Description: as §2, §3, §1, §4, §5, §6
# [6] = Table 1a, MRSA n = 27, VRE n = 5, miconazole MIC alone or with D-cycloserine fixed at 10 mg/L
# [7] = Table 1b, MRSA n = 27, VRE n = 5, miconazole MIC alone or with fosfomycin fixed at 5 mg/L
# [8] = Table 1c, MRSA n = 21, VRE n = 3, miconazole MIC alone or with colistin fixed at 5 mg/L
# [9] = Table 1e, MRSA n = 21, VRE n = 4, miconazole MIC alone or with nisin fixed at 2.5 mg/L
# [10] = Table 3, MRSA n = 27, VRE n = 5, miconazole alone, 1:1 bacitracin to miconazole, or with bacitracin fixed at 2.5 mg/L
smiles,measurement,setting,value
"Clc1ccc(COC(Cn2ccnc2)c2ccc(Cl)cc2Cl)c(Cl)c1 (stereo not shown) [Miconazole, 1-[2-(2,4-Dichlorophenyl)-2-[(2,4-dichlorophenyl)methoxy]ethyl]-1H-imidazole]",MIC90,"[1]; 24 h, Table 1d, MRSA n = 21, VRE n = 3, miconazole MIC alone or with polymixin B fixed at 20 mg/L",4 µg/mL
same,MIC 50,"[1]; 24 h, Table 1d, MRSA n = 21, VRE n = 3, miconazole MIC alone or with polymixin B fixed at 20 mg/L, read-out: MIC 50",2 µg/mL
same,MIC90,[1]; [6],2 µg/mL
same,MIC Range,[1]; [6],0.5 to 8 µg/mL
same,MIC 50,"[1]; Table 1a, MRSA n = 27, VRE n = 5, miconazole MIC alone or with D-cycloserine fixed at 10 mg/L, read-out: MIC 50",2 µg/mL
same,MIC 50,[1]; [7],2 µg/mL
same,MIC90,[1]; [7],2 µg/mL
same,MIC Range,[1]; [7],0.5 to 8 µg/mL
same,MIC 50,[1]; [8],2 µg/mL
same,MIC90,[1]; [8],4 µg/mL
same,MIC Range,[1]; [8],1 to 6 µg/mL
same,MIC 50,[1]; [9],2 µg/mL
same,MIC90,[1]; [9],4 µg/mL
same,MIC Range,[1]; [9],0.5 to 8 µg/mL
same,MIC 50,[1]; [10],2 µg/mL
same,MIC90,[1]; [10],2 µg/mL
same,MIC Range,[1]; [10],0.5 to 8 µg/mL
same,MIC Range,"[1]; Table 1d, MRSA n = 21, VRE n = 3, miconazole MIC alone or with polymixin B fixed at 20 mg/L",1 to 6 µg/mL
same,MIC,"[2]; ATCC 7171 / VRE, Table 4, strain E. faecium ATCC 7171, agents singly or miconazole MIC with 2.5 mg/L nisin",0.5 µg/mL
same,MIC,"[2]; VRE, Table 4, strain E15 VanAATCC4147 E. faecium, agents singly or miconazole MIC with 2.5 mg/L nisin",2 µg/mL
same,MIC,"[2]; VRE, Table 4, strain E. faecium VanR B145344C LFE, agents singly or miconazole MIC with 2.5 mg/L nisin",4 µg/mL
same,MIC,"[3]; Table 4, strain Mu3ex Japan, agents singly or miconazole MIC with 2.5 mg/L nisin",2 µg/mL
same,MIC,"[3]; Table 4, strain Mu50ex Japan, agents singly or miconazole MIC with 2.5 mg/L nisin",1 µg/mL
same,MIC,"[3]; Table 4, strain USA/VISA 5827, agents singly or miconazole MIC with 2.5 mg/L nisin",2 µg/mL
same,MIC,"[3]; Table 4, strain USA/VISA 5836, agents singly or miconazole MIC with 2.5 mg/L nisin",4 µg/mL
same,MIC,"[3]; Table 4, strain VISA 3900 UK, agents singly or miconazole MIC with 2.5 mg/L nisin",2 µg/mL
same,MIC,[4],1 µg/mL
same,MIC,"[5]; Clostridioides difficile, C. difficile clinical isolate 184, read-out: MIC",> 16 µg/mL
same,MIC,[5]; C. difficile clinical isolate 5,>16 µg/mL
same,MIC,[5]; C. difficile clinical isolate 23,>16 µg/mL
same,MIC,[5]; C. difficile clinical isolate 28,>16 µg/mL
same,MIC,[5]; C. difficile clinical isolate 30,>16 µg/mL
same,MIC,[5]; C. difficile clinical isolate 31,>16 µg/mL
same,MIC,[5]; C. difficile clinical isolate 41,>16 µg/mL
same,MIC,[5]; C. difficile clinical isolate 47,>16 µg/mL
same,MIC,[5]; C. difficile clinical isolate 57,>16 µg/mL
same,MIC,[5]; C. difficile clinical isolate 58,>16 µg/mL
same,MIC,[5]; C. difficile clinical isolate 77,>16 µg/mL
same,MIC,[5]; C. difficile clinical isolate 83,>16 µg/mL
same,MIC,[5]; C. difficile clinical isolate 84,>16 µg/mL
same,MIC,[5]; C. difficile clinical isolate 87,>16 µg/mL
same,MIC,[5]; C. difficile clinical isolate 96,>16 µg/mL
same,MIC,[5]; C. difficile clinical isolate 97,>16 µg/mL
same,MIC,[5]; C. difficile clinical isolate 98A,>16 µg/mL
same,MIC,[5]; C. difficile clinical isolate 99A,>16 µg/mL
same,MIC,[5]; C. difficile clinical isolate 102,>16 µg/mL
same,MIC,[5]; C. difficile clinical isolate 120,>16 µg/mL
same,MIC,[5]; C. difficile clinical isolate 126,>16 µg/mL
same,MIC,[5]; C. difficile clinical isolate 130,>16 µg/mL
same,MIC,[5]; C. difficile clinical isolate 169,>16 µg/mL
same,MIC,[5]; C. difficile clinical isolate 185,>16 µg/mL
same,MIC,[5]; C. difficile clinical isolate 186,>16 µg/mL
